# Counter-ions that a name gives are not always drawn. Like-named read-outs stand apart in the source and are kept apart here.
# Tests used:
# [1] = tested on: patients with persistent atrial fibrillation; details: SAFE-T trial, cited from earlier work; for increasing the time to a recurrence of atrial fibrillation, versus placebo / effectiveness in increasing time to recurrence of atrial fibrillation relative to sotalol: P<0.001; for number of strokes per 100 patient-years of follow-up: calculated from page 1866 of Singh et al., placebo 1.91
# [2] = tested on: patients with a history of atrial fibrillation or atrial flutter; assay: Prospective, multinational, double-blind, randomized, placebo-controlled, parallel group trial (ATHENA) of dronedarone hydrochloride for prevention of stroke; type: in vivo, human
# Protocol: Efficacy of dronedarone and its pharmaceutically acceptable salts versus placebo for the prevention of stroke was provided via dronedarone hydrochloride during a prospective, multinational, double-blind, randomized, multi-center, placebo-controlled, parallel group trial.
# Eligible patients have a history of atrial fibrillation or atrial flutter and/or may be in normal sinus rhythm or in atrial fibrillation or flutter at the time of recruitment. Recruitment of patients was conducted taking into account the following inclusion criteria:
# 1) One of the following risk factors had to be present: • age equal to or greater than 70 years, • hypertension (taking antihypertensives of at least two different classes), • diabetes, • history of cerebral stroke (transient ischemic event or completed cerebral stroke) or of systemic embolism, • left atrial diameter greater than or equal to 50 mm measured by echocardiography, • left ventricular ejection fraction less than 40%, measured by two-dimensional echography; or • age equal to or above 70, or even above 75, possibly combined with at least one of the risk factors below: • hypertension (taking antihypertensives of at least two different classes), • diabetes, • history of cerebral stroke (transient ischemic event or completed cerebral stroke) or of systemic embolism, • left atrial diameter greater than or equal to 50 mm measured by echocardiography, • left ventricular ejection fraction less than 40%, measured by two-dimensional echography;
# 2) availability of one electrocardiogram within the last six months, showing that the patients was or is in atrial fibrillation/flutter,
# 3) availability of one electrocardiogram within the last six months, showing that the patients was or is in sinus rhythm.
# Study drug treatment units (placebo or dronedarone hydrochloride corresponding to 400 mg of base) were such that each patient took one tablet in the morning during or shortly after breakfast and one tablet in the evening during or shortly after dinner.
# The treatment duration depended on the time of recruitment of each patient in the trial and could be comprised from 12 months to 30 months.
# Results were calculated using non-parametric Kaplan-Meier estimate.
# Cox's proportional hazard model was used to estimate the hazard ratio also called relative risk.
# Relative risk (RR) is the ratio between the risk of having a stroke (or transient ischemic attack (TIA)) for patients treated with dronedarone and the risk of having a stroke (or transient ischemic attack (TIA)) for patients treated with placebo.
# Percentage of decrease of an event is calculated as follow: […]
# [3] = on-treatment analysis of 30 months
# [4] = versus placebo, Cox's proportional hazard model
compound,measurement,setting,value
CCCCc1oc2ccccc2c1C(=O)c1cc(I)c(OCCN(CC)CC)c(I)c1 [amiodarone],"increasing the time to a recurrence of atrial fibrillation, versus placebo",[1],significantly more effective than placebo
same,effectiveness in increasing time to recurrence of atrial fibrillation relative to sotalol,[1]; analysis according to the treatment actually received,four times as effective
same,number of strokes per 100 patient-years of follow-up,[1],2.06 per 100 patient-years
same,effectiveness in increasing time to recurrence of atrial fibrillation relative to sotalol,[1]; intention-to-treat analysis,six times as effective as sotalol
"CCCCc1oc2ccc(NS(C)(=O)=O)cc2c1C(=O)c1ccc(OCCCN(CCCC)CCCC)cc1 [dronedarone hydrochloride, 2-n-butyl-3-[4-(3-di-n-butylaminopropoxy)benzoyl]-5-méthylsulfonamido-benzofuranne]",fatal stroke events reported,"[2]; 2301 of 4628 patients on drug, 400 mg base twice daily, 12 to 30 months, placebo group 18 events",11
same,ischemic stroke events reported,"[2]; 2301 of 4628 patients on drug, 400 mg base twice daily, 12 to 30 months, placebo group 49 events",33
same,stroke events reported,"[2]; 2301 of 4628 patients on drug, 400 mg base twice daily, 12 to 30 months, placebo group 70 events",45
same,stroke or TIA events reported,"[2]; 2301 of 4628 patients on drug, 400 mg base twice daily, 12 to 30 months, placebo group 80 events",52
same,ACS events reported (cardiovascular hospitalization for Acute Coronary Syndrome),"[2]; 2301 of 4628 patients on drug, 400 mg base twice daily, 12 to 30 months, placebo group 89 events",62
same,"stroke, Acute Coronary Syndrome (ACS) or cardiovascular death events reported","[2]; 2301 of 4628 patients on drug, 400 mg base twice daily, 12 to 30 months, placebo group 216 events",147
same,"stroke, Acute Coronary Syndrome (ACS) or death events reported","[2]; 2301 of 4628 patients on drug, 400 mg base twice daily, 12 to 30 months, placebo group 262 events",196
same,"time course of effect on first stroke (FIG. 2, Kaplan Meier cumulative incidence curves)",[2]; [3],occurred early and increased over time
same,"time course of effect on first stroke or TIA (FIG. 1, Kaplan Meier cumulative incidence curves)",[2]; [3],occurred early and increased over time
same,relative risk of cardiovascular hospitalization for Acute Coronary Syndrome,[2]; [4],0.70
same,relative risk of fatal stroke,[2]; [4],0.62
same,relative risk of ischemic stroke,[2]; [4],0.68
same,relative risk of stroke,[2]; [4],0.65
same,relative risk of stroke or TIA,[2]; [4],0.65
same,"relative risk of stroke, Acute Coronary Syndrome (ACS) or cardiovascular death",[2]; [4],0.68
same,decrease of the relative risk of cardiovascular hospitalization for Acute Coronary Syndrome,"[2]; versus placebo, x=1-RR",30%
same,decrease of the relative risk of fatal stroke,"[2]; versus placebo, x=1-RR",38%
same,decrease of the relative risk of ischemic stroke,"[2]; versus placebo, x=1-RR",32%
same,decrease of the relative risk of stroke,"[2]; versus placebo, x=1-RR",35%
same,decrease of the relative risk of stroke or TIA,"[2]; versus placebo, x=1-RR",35%
same,"decrease of the relative risk of stroke, Acute Coronary Syndrome (ACS) or cardiovascular death","[2]; versus placebo, x=1-RR",32%
same,"decrease of the relative risk of stroke, Acute Coronary Syndrome (ACS) or death","[2]; versus placebo, x=1-RR",25%
CC(C)NCC(O)c1ccc(NS(C)(=O)=O)cc1 (stereo not shown) [sotalol],"increasing the time to a recurrence of atrial fibrillation, versus placebo",[1],significantly more effective than placebo
same,number of strokes per 100 patient-years of follow-up,[1],2.71 per 100 patient-years
